Laboratory results reported in publication PMC3914206.

Assays:
Format in all cases: binding
Conditions in all cases: Compound Concentration 10 µM
[1] = target: T1, panel of 442 kinases (Homo sapiens, UniProt P21802)
T1 construct: purchased KINOMEscan
Excerpt: (§1) We assessed the selectivity of members of this scaffold using the KINOMEscan methodology across a near comprehensive panel of 442 kinases [[18,27]].

[2] = target: T2, panel of 442 kinases (Homo sapiens, UniProt Q8NG66)
T2 construct: purchased KINOMEscan
T2 sequence (Q8NG66 1-645): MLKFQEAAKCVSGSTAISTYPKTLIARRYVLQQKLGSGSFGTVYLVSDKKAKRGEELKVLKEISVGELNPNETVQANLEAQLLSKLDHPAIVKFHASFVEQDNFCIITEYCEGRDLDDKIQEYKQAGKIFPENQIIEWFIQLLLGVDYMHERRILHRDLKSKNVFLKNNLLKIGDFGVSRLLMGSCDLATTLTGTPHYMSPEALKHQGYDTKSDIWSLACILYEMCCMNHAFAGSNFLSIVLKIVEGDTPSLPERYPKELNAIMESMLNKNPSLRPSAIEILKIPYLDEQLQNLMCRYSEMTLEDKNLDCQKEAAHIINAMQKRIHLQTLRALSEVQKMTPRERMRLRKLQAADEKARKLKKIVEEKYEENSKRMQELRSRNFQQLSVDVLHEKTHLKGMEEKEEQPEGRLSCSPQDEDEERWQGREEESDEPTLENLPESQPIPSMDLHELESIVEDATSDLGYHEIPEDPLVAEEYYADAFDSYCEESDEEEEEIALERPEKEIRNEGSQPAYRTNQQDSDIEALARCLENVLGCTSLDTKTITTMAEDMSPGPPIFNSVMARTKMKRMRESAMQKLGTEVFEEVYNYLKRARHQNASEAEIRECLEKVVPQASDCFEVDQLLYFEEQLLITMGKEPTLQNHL
Excerpt: as §1

[3] = target: T3, panel of 442 kinases (Homo sapiens, UniProt Q16584)
T3 construct: purchased KINOMEscan
T3 sequence (Q16584 whole entry): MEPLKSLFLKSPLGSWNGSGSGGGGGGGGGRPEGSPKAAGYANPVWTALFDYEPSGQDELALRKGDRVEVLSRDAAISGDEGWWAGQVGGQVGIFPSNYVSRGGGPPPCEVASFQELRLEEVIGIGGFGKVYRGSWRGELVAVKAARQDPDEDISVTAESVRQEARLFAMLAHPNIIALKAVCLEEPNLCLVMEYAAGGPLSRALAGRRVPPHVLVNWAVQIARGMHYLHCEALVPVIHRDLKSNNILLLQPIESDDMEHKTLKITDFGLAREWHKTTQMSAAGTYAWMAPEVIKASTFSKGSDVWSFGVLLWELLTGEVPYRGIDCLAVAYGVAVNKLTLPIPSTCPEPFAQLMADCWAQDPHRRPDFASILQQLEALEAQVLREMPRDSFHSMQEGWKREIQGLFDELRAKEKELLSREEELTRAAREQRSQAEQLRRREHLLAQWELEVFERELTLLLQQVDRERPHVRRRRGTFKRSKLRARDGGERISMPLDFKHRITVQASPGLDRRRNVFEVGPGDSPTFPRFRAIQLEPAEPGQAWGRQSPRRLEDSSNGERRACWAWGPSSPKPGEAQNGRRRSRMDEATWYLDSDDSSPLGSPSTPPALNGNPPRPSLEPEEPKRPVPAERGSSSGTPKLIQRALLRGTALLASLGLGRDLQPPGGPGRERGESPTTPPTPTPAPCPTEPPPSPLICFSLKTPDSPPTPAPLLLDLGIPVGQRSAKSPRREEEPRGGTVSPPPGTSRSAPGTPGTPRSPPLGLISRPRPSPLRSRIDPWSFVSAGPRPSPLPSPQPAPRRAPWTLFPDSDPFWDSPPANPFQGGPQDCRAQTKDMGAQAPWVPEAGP
Excerpt: as §1

T1 sequence (P21802 22-821): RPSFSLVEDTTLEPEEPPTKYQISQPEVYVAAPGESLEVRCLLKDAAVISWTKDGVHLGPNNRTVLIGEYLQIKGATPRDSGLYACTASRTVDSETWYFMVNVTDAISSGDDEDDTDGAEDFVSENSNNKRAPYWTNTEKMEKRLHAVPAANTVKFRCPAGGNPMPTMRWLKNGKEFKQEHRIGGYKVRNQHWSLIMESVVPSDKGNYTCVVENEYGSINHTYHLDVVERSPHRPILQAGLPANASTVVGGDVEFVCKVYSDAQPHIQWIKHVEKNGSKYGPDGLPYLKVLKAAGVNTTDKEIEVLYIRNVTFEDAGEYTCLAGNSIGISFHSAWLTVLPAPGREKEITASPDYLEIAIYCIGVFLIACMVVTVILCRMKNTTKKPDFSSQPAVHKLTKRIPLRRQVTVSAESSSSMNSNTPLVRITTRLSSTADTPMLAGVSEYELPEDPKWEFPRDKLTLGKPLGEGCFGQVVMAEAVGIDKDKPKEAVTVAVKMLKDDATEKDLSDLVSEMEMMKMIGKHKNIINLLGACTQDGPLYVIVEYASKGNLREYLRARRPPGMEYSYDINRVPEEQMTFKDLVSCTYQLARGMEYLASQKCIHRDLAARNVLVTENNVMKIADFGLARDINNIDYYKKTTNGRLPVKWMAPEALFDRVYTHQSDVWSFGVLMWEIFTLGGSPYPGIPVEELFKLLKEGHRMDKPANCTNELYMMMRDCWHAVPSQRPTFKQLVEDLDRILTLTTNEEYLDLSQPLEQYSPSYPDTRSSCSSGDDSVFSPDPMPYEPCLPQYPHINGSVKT

| Compound | KINOMEscan: FGFR2 [1] | KINOMEscan: NEK11 [2] | KINOMEscan: MLK3 [3] |
| --- | --- | --- | --- |
| COc1cc(C(=O)N2CCC(N3CCN(C)CC3)CC2)ccc1Nc1ncc2c(n1)N(C1CCCC1)c1ccccc1C(=O)N2C [Compound 25, 11-cyclopentyl-2-((2-methoxy-4-(4-(4-methylpiperazin-1-yl)piperidine-1-carbonyl)phenyl)amino)-5-methyl-5H-benzo[e]pyrimido[5,4-b][1,4]diazepin-6(11H)-one] | 100 | 100 | 100 |
| CCOc1cc(C(=O)N2CCC(N3CCN(C)CC3)CC2)ccc1Nc1ncc2c(n1)N(C1CCCC1)c1ccccc1C(=O)N2C [Compound 26] | 100 | 100 | 100 |
| COc1cc(C(=O)N2CCC(N3CCN(C)CC3)CC2)ccc1Nc1ncc2c(n1)N1CCc3cccc(c31)C(=O)N2C [Compound 24] | 83 |  |  |
| COc1cc(C(=O)N2CCC(N3CCN(C)CC3)CC2)ccc1Nc1ncc2c(n1)N(C)c1ccccc1C(=O)N2C [15 (LRRK2-IN-1)] | 95 | 100 | 100 |
